This note sets out measurements from ChEMBL document CHEMBL3745675, “Design and optimization of selective azaindole amide M1 positive allosteric modulators” (Bioorg Med Chem Lett, 2016).

Data set [1] can be described thus: Ratio of unbound AUC in brain to plasma in C57BL/6j mouse. Type of data set: ADME, organism-based. To be noted: read-out: Ratio AUC.
Data set [2] can be described thus: Permeability in RRCK cells. Type of data set: ADME, cell-based, Canis lupus familiaris, MDCKII-LE. To be noted: dog, MDCK; read-out: permeability.
The test system of data set [3] is Plasma. The experiment in a line: Fraction unbound in C57BL/6j mouse plasma. Type of data set: ADME, cell-free.

Molecules are shown by their SMILES.

As for `O=C(N[C@H]1CCOC[C@@H]1O)c1cn(Cc2ccc(-n3cccn3)cc2)c2cccnc12`, the Kp uu in data set [1] came to 0.04. In addition, the Papp in data set [2] was determined as 21.7 ×10⁻⁶ cm/s. Further, the “Cp(f)” value in data set [3] came to 0.13 nM.

Turning to `O=C(N[C@H]1CCOC[C@@H]1O)c1cn(Cc2ccc(-c3cc[nH]n3)cc2)c2cccnc12`, the Papp in data set [2] worked out at 14 ×10⁻⁶ cm/s.
